Values quoted from earlier work, collected in patent publication US20140045904A1, “NIACIN FORMULATIONS AND METHODS WITH REDUCED FLUSHING SIDE EFFECT” (priority 2010, published 2014).

Experiments:
[1] = tested on: niacin-induced flushing; conditions: rofecoxib: single dose of 500 mg immediate-release niacin; laropiprant: clinical trials; aspirin: oral niacin
[2] = target: COX-2 (Homo sapiens, UniProt P35354); conditions: while sparing COX-1
[3] = tested on: HDL cholesterol; conditions: low doses of niacin (300-1,000 mg/day)
[4] = tested on: PGD-2; conditions: niacin given orally (500 mg)
[5] = tested on: prostacyclin (PGI-2); conditions: ingestion of oral niacin
[6] = tested on: rat macrophages; conditions: dual inhibitor of COX-1 and COX-2

Sequence of COX-2 (P35354 18-604): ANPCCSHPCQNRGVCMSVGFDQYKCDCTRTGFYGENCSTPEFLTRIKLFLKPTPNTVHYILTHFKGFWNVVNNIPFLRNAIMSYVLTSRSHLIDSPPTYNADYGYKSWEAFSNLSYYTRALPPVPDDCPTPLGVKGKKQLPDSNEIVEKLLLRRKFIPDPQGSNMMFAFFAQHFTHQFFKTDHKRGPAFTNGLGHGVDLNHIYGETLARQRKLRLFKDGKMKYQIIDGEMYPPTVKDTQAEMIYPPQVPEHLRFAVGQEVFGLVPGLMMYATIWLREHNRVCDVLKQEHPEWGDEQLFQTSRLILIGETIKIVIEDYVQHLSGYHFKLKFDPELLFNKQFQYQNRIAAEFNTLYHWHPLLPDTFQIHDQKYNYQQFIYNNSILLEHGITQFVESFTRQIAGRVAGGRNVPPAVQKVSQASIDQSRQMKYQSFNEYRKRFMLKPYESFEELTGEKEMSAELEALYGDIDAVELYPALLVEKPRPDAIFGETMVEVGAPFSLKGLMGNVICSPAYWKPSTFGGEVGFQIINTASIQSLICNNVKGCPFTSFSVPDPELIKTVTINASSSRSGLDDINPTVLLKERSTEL

In the case of `CC(=O)Oc1ccccc1C(=O)O` [aspirin], the “effect of pretreatment on flushing from niacin” value (“effect of pretreatment” for short) [1] is listed as “can suppress the flush”.
For `CS(=O)(=O)c1ccc(C2=C(c3ccccc3)C(=O)OC2)cc1` [rofecoxib], the “effect of pretreatment” value [1] is listed as “did not result in a reduction of flushing” and the “inhibition of COX-2 in vivo” value [2] is listed as “about 90%”.
In the case of `O=C(O)c1cccnc1` [niacin, pyridine-3-carboxylic acid], the “raise of HDL cholesterol” value [3] is given as “up to 45%”, the “increase of levels of the major metabolite of PGD-2” value [4] is given as 400 to 800 fold and the “time to decline of PGD-2 metabolite to near normal levels” value [4] is given as 2 to 4 h. For the same molecule, the “time to increase of PGD-2 metabolite after ingestion” value [4] was 12 to 45 min, the “increase in prostacyclin (PGI-2)” value [5] was 2 fold and the “major urinary metabolite of PGE-2 (PGE-M)” value [5] was “does not increase”.
For `COc1ccc2c(c1)c(CC(=O)O)c(C)n2C(=O)c1ccc(Cl)cc1` [indomethacin], the “endogenous production of PGE-2 and PGD-2” value [6] is listed as “suppressed”.
In the case of `CS(=O)(=O)c1cc(F)cc2c3c(n(Cc4ccc(Cl)cc4)c12)[C@@H](CC(=O)O)CC3` [laropiprant], the “effect of pretreatment” value [1] is given as “substantially reduced, but fell far short of eliminating”.
